Experiment [1] deals with KMS 11 (human myeloma cell line). The experiment in a line: Cell proliferation assay (CellTiter-Glo), KMS 11. It counts as cell-based. As to conditions: KMS11 cells, read-out: EC50 (μM) KMS11. Here is the method: (§1) KMS 11 (human myeloma cell line), were cultured in IMDM supplemented with 10% FBS, sodium pyruvate and antibiotics. Cells were plated in the same medium at a density of 2000 cells per well into 96 well tissue culture plates, with outside wells vacant, on the day of assay. MM1.s (human myeloma cell line), were cultured in RPMI1640 supplemented with 10% FBS, sodium pyruvate and antibiotics. Cells were plated in the same medium at a density of 5000 cells per well into 96 well tissue culture plates, with outside wells vacant, on the day of assay.
(§2) Test compounds supplied in DMSO were diluted into DMSO at 500 times the desired final concentrations before dilution into culture media to 2 times final concentrations. Equal volumes of 2× compounds were added to the cells in 96 well plates and incubated at 37° C. for 3 days.
(§3) After 3 days plates were equilibrated to room temperature and equal volume of CellTiter-Glow Reagent (Promega) was added to the culture wells. The plates were agitated briefly and luminescent signal was measured with luminometer. The percent inhibition of the signal seen in cells treated with DMSO alone vs. cells treated with control compound was calculated and used to determine EC50 values (i.e., the concentration of a test compound that is required to obtain 50% of the maximum effect in the cells) for tested compounds, as shown in Example 763.
On the technique in general: In ATP-based viability assays light output follows the ATP content of the culture.

Experiment [2] concerns MM1.s (human myeloma cell line). The experiment in a line: Cell proliferation assay (CellTiter-Glo), MM1.s. Format: cell-based. To be noted: MM1.s cells, read-out: EC50 (μM) MM1.s. Here is the method:
as §1, §2, §3

In experiment [3] the target is Pim3 kinase (Homo sapiens, UniProt Q86V86). As to the kind of experiment: Pim3 ATP depletion assay. Format: biochemical. To be noted: read-out: IC50 (μM) PIM3.
In experiment [4] the target is Pim1 kinase (Homo sapiens, UniProt P11309). The experiment in a line: Pim1 ATP depletion assay.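 Further: Luciferase-luciferin luminescence readout of residual ATP after PIM1 transfers phosphate to a peptide substrate, 40 µM ATP added, reaction run to roughly half ATP consumption.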 To be noted: Pim1 ATP depletion assay; read-out: IC50 (μM) PIM1. It counts as biochemical.
The target in experiment [5] is Pim2 kinase (Homo sapiens, UniProt Q9P1W9). The experiment in a line: Pim2 ATP depletion assay.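 Further: Luciferase-based luminescent readout of ATP remaining after PIM2 phosphorylates a BAD peptide, final 5 nM enzyme, 4 µM ATP, 10 µM peptide, 2.5% DMSO, run to roughly half ATP consumption.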 It counts as biochemical. To be noted: read-out: IC50 (μM) PIM2.
In experiment [6] the target is T1, human full length PKCE enzyme (Homo sapiens, UniProt Q02156).
T1 construct: human full length PKCE enzyme purchased from InVitrogen; purchased InVitrogen
T1 sequence (Q02156 1-737): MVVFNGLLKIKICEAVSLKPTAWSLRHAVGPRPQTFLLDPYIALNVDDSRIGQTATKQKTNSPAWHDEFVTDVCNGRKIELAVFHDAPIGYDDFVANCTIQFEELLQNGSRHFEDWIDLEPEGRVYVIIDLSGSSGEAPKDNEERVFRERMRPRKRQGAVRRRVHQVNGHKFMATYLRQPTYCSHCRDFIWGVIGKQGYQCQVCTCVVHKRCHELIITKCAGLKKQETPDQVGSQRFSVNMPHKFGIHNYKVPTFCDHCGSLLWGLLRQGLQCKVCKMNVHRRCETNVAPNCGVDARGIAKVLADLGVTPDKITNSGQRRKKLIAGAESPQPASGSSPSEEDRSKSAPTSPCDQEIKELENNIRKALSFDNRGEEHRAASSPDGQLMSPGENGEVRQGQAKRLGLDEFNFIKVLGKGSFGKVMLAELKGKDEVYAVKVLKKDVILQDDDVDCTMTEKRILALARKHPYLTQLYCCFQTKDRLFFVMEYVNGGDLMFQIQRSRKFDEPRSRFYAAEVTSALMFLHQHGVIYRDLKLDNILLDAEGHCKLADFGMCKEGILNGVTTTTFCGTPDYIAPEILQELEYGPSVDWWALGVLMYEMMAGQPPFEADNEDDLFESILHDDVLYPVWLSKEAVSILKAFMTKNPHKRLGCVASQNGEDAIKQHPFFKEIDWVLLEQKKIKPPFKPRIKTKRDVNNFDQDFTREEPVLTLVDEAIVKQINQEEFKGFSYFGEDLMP
As to the kind of experiment: In vitro PKCE assay. To be noted: 10 nM enzyme, 40 uM peptide substrate, 20 uM ATP, KinaseGlo Plus readout; read-out: PKCε IC50. It counts as biochemical. Background: In Kinase-Glo more light means more ATP remaining.

Experiment [7] concerns HEL 92.1.7 cells. The experiment in a line: Cell proliferation assay (CellTiter-Glo), HEL 92.1.7. To be noted: Homo sapiens, read-out: EC50 (μM) HEL 92.1.7. It counts as cell-based. In outline:
(§4)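 Cells in RPMI1640 with 10% FBS were seeded at 1000 cells/well and exposed to compound dilutions from DMSO stocks for 3 days at 37 °C. Viability was read by CellTiter-Glo luminescence. EC50 was derived from percent inhibition relative to DMSO-only and control-compound wells.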

Experiment [8] has as its system PC3 cells. The experiment in a line: Cell proliferation assay (CellTiter-Glo), PC3. Format: cell-based. As to conditions: Homo sapiens, PC-3. In outline: as §4
For experiment [9], the target named is KDR kinase (Homo sapiens, UniProt P35968). As to the kind of experiment: KDR AlphaScreen assay. To be noted: KDR IC50 (μM). (Bead proximity is the source of the signal in Alpha formats.)

Consider 14 compounds from patent US20140249135A1, “PIM KINASE INHIBITORS AND METHODS OF THEIR USE” (NOVARTIS AG, priority 2007, published 2014).

KDR kinase, sequence (P35968 20-1356): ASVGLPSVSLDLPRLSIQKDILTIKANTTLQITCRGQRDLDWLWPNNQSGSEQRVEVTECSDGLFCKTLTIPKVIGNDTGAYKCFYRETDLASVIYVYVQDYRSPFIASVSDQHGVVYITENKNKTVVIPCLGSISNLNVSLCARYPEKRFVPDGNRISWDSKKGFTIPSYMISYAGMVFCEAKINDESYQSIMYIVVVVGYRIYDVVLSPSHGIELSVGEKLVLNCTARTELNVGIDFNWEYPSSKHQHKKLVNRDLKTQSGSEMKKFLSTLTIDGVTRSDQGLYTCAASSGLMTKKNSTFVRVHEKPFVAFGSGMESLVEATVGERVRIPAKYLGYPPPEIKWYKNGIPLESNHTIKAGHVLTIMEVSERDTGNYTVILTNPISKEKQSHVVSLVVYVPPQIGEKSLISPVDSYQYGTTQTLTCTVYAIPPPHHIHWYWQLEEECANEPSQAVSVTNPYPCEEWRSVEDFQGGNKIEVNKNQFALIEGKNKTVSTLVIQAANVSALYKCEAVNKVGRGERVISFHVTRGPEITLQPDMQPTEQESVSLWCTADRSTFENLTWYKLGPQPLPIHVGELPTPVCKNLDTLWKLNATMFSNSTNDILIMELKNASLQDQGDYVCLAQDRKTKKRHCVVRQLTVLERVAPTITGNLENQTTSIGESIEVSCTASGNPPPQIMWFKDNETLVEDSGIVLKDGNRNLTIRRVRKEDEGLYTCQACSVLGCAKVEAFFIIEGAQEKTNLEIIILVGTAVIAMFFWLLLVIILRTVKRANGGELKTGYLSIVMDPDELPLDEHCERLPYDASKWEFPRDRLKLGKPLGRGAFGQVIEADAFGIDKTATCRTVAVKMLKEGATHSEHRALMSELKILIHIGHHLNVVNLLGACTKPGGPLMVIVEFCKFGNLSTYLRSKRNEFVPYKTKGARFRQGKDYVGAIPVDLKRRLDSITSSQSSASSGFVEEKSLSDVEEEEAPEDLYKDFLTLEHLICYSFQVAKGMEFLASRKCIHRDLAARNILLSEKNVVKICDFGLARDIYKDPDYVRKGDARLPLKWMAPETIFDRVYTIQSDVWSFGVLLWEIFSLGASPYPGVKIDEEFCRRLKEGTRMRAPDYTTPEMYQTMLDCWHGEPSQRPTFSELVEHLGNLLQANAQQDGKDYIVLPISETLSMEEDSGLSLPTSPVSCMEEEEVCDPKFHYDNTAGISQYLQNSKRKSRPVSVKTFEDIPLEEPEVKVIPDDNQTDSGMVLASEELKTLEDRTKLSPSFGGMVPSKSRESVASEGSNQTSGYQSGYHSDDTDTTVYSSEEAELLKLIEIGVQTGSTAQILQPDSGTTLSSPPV
Pim1 kinase, sequence (P11309 whole entry): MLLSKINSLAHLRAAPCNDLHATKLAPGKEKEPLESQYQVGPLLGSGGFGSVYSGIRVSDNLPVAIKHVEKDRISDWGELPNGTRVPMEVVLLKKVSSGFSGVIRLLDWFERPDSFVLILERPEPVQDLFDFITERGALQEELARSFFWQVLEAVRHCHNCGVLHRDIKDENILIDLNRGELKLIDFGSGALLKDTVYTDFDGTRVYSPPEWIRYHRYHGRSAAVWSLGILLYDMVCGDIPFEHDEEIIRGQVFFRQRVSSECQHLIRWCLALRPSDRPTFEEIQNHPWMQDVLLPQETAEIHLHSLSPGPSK
Pim2 kinase, sequence (Q9P1W9 whole entry): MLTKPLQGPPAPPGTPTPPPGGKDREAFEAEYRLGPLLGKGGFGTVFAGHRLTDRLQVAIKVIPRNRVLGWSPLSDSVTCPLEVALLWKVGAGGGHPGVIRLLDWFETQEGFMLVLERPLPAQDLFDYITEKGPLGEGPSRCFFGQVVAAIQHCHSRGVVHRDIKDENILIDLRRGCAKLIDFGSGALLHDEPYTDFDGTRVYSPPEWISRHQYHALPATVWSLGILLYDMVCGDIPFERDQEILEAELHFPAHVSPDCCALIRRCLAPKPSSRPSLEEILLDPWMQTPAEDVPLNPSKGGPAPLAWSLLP

For `Nc1ccc(-c2c(F)cccc2F)nc1C(=O)Nc1cnccc1N1CC[C@H](F)[C@@H](N)C1` [Example 276, 3-Amino-6-(2,6-difluoro-phenyl)-pyridine-2-carboxylic acid (3-amino-4-fluoro-3,4,5,6-tetrahydro-2H-[1,4′]bipyridinyl-3′-yl)-amide], the EC50 (commonly the concentration that produces a half-maximal response) in [1] fell in the range of 1 to 5 µM; in experiment [2], 5 to 10 µM. Also, the IC50 in experiment [3], in [4] and in experiment [5] was less than 1 µM each time.
As for `Nc1ccc(-c2c(F)cccc2F)nc1C(=O)Nc1cnccc1N1CCCC2(CCNC2)C1` (stereo not drawn) [Example 290, 3-Amino-6-(2,6-difluoro-phenyl)-pyridine-2-carboxylic acid [4-(2,7-diaza-spiro[4.5]dec-7-yl)-pyridin-3-yl]-amide], the EC50 in [1] and in [2] was 1 to 5 µM in each case. Also, the IC50 in [3], in experiment [4] and in experiment [5] was less than 1 µM in each case.
`CC(C)NC(=O)c1ccc(F)c(-c2ccc(N)c(C(=O)Nc3cnccc3N3C[C@@H](N)C[C@@H](F)C3)n2)c1` [Example 292, 3-Amino-6-(2-fluoro-5-isopropylcarbamoyl-phenyl)-pyridine-2-carboxylic acid (3-amino-5-fluoro-3,4,5,6-tetra-hydro-2H-[1,4′]bipyridinyl-3′-yl)-amide]: the EC50 in [1] and in [2] was less than 1 µM in each case. The IC50 in [3], in experiment [4] and in experiment [5] was less than 1 µM each time.
`CO[C@@H]1C[C@H](N)CN(c2ccncc2NC(=O)c2nc(-c3cc(C(=O)NC(C)C)ccc3F)ccc2N)C1` [Example 298, 3-Amino-6-(2-fluoro-5-isopropylcarbamoyl-phenyl)-pyridine-2-carboxylic acid (3-amino-5-methoxy-3,4,5,6-tetra-hydro-2H-[1,4′]bipyridinyl-3′-yl)-amide]: the EC50 in experiment [1] and in [2] was less than 1 µM in each case. In addition, the IC50 in [3], in experiment [4] and in experiment [5] was less than 1 µM in each case.
Consider `CO[C@@H]1C[C@H](N)CN(c2ccncc2NC(=O)c2nc(-c3c(F)cccc3F)ccc2N)C1` [Example 300, 3-Amino-6-(2,6-difluoro-phenyl)-pyridine-2-carboxylic acid (3-amino-5-methoxy-3,4,5,6-tetrahydro-2H-[1,4′]bi-pyridinyl-3′-yl)-amide], for which the EC50 in [1] and in [2] was less than 1 µM in each case. The IC50 in experiment [3], in experiment [4] and in experiment [5] was less than 1 µM in each case.
For the compound `N#Cc1ccccc1-c1cnc(N)c(C(=O)Nc2cnccc2N2CCCC(N)C2)n1` (stereo not drawn) [Example 345, 3-amino-6-(2-cyano-phenyl)-pyrazine-2-carboxylic acid (3-amino-3,4,5,6-tetrahydro-2H-[1,4′]bipyridinyl-3′-yl)-amide], the concentration for half-maximal inhibition (IC50) – broadly, the concentration needed to halve the response being measured – was less than 1000 nM in experiment [6]; less than 1 µM in experiment [3]; less than 1 µM in experiment [4]; less than 1 µM in experiment [5]; less than 1 µM in [9]. Further, the EC50 in experiment [7] and in experiment [8] was less than 1 µM in each case.
For `Nc1ccc(-c2ccncc2Cl)nc1C(=O)Nc1cnccc1N1CCC[C@H](N)C1` [Example 422, 5-amino-3′-chloro-[2,4′]bi-pyridinyl-6-carboxylic acid ((S)-3-amino-3,4,5,6-tetrahydro-2H-[1,4′]bipyridinyl-3′-yl)-amide], the IC50 was 10000 to 25000 nM in experiment [6]; less than 1 µM in [3]; less than 1 µM in [4]; less than 1 µM in experiment [5]; more than 25 µM in [9]. The EC50 in experiment [7] was 1 to 5 µM; in experiment [8], more than 10 µM.
Regarding `Nc1ccc(-c2cccc(F)c2F)nc1C(=O)Nc1cnccc1N1CCC[C@H](N)C1` [Example 424, 3-amino-6-(2,3-difluoro-phenyl)-pyridine-2-carboxylic acid ((S)-3-amino-3,4,5,6-tetrahydro-2H-[1,4′]bipyridinyl-3′-yl)-amide], the IC50 in experiment [6] is 1000 to 10000 nM; in experiment [3], less than 1 µM; in experiment [4], less than 1 µM; in experiment [5] it was less than 1 µM; in experiment [9], more than 25 µM. The EC50 lay in the range of 1 to 5 µM in experiment [7] and 5 to 10 µM in experiment [8].
Take `N[C@H]1CCCN(c2ccncc2NC(=O)c2ccc(F)c(-c3ccccc3)n2)C1` [Example 442, 5-Fluoro-6-phenyl-pyridine-2-carboxylic acid (3-amino-3,4,5,6-tetrahydro-2H-[1,4′]bipyridinyl-3′-yl)-amide]: the 50% effective concentration (EC50) in [1] was in the range of 1 to 5 µM; in [2], 5 to 10 µM. Moreover, the half-inhibitory concentration (IC50) in experiment [3], in experiment [4] and in experiment [5] was less than 1 µM in each case.
For the compound `CC(C)NC(=O)c1ccc(F)c(-c2nc(C(=O)Nc3cnccc3N3CCC[C@H](N)C3)ccc2F)c1` [Example 443, 5-Fluoro-6-(2-fluoro-5-isopropylcarbamoyl-phenyl)-pyridine-2-carboxylic acid (3-amino-3,4,5,6-tetrahydro-2H-[1,4′]bipyridinyl-3′-yl)-amide], the EC50 lay within 1 to 5 µM in experiment [1] and 5 to 10 µM in experiment [2]. The IC50 in experiment [3], in [4] and in experiment [5] was less than 1 µM each time.
In the case of `N[C@H]1CCCN(c2ccncc2NC(=O)c2ccc(F)c(-c3c(F)cccc3F)n2)C1` [Example 445], the EC50 in experiment [1] and in [2] was 1 to 5 µM in each case. For the same compound, the IC50 in experiment [3] and in experiment [4] was less than 1 µM in each case.
Consider `Nc1ccc(-c2c(F)cccc2F)nc1C(=O)Nc1cnccc1N1CCC[C@@H](N)C1` [Example 462, 3-Amino-6-(2,6-difluoro-phenyl)-pyridine-2-carboxylic acid (3-amino-3,4,5,6-tetrahydro-2H-[1,4′]bipyridinyl-3′-yl)-amide], for which the EC50 in [1] and in [2] was 1 to 5 µM in each case. Also, the IC50 in [3], in experiment [4] and in experiment [5] was less than 1 µM in each case.
Turning to `CCCOc1ccc(F)c(-c2ccc(N)c(C(=O)Nc3cnccc3N3CCC[C@H](N)C3)n2)c1F` [Example 491, 3-Amino-6-(2,6-difluoro-3-propoxy-phenyl)-pyridine-2-carboxylic acid (3-amino-3,4,5,6-tetrahydro-2H-[1,4′]bipyridinyl-3′-yl)-amide], the EC50 in experiment [1] and in experiment [2] was 1 to 5 µM in each case. In addition, the IC50 in experiment [3], in experiment [4] and in [5] was less than 1 µM each time.
Regarding `CCCOc1ccc(F)c(-c2nc(C(=O)Nc3cnccc3N3CCC[C@H](N)C3)c(N)cc2F)c1F` [Example 494, 3-Amino-6-(2,6-difluoro-3-propoxy-phenyl)-5-fluoro-pyridine-2-carboxylic acid (3-amino-3,4,5,6-tetrahydro-2H-[1,4′]bipyridinyl-3′-yl)-amide], the EC50 is less than 1 µM in [1] and 1 to 5 µM in experiment [2]. In addition, the half-maximal inhibitory concentration (IC50) in experiment [3], in experiment [4] and in experiment [5] was less than 1 µM each time.
